Test results: ChEMBL document CHEMBL6114999, “Natural pyrrolo[1,2-a]quinazolinone derivatives: Design, synthesis, characterization, and bio-evaluation as novel antiviral agents” (Eur J Med Chem, 2025)
Active and inactive are the calls of the source. No cut-off for these calls is given here.

Tests used:
Enterovirus [1] = assay: Antiviral activity against EV71 infected in human RD cells assessed as cell viability at 100 uM pre-infected with virus followed by compound treatment measured after 48 hrs post-infection by MTT assay relative to control; format: functional, 71
Coxsackievirus B3 [2] = assay: Antiviral activity against CVB3 infected in HEp-2 cells assessed as inhibition of virus-induced cell death at 25 to 100 uM incubated for 48 hrs by MTT assay; format: functional, organism-based; conditions: dose 25-100 µM
Enterovirus [3] = assay: Antiviral activity against EV71 infected in human RD cells assessed as inhibition of virus-induced cell death at 50 uM incubated for 48 hrs by MTT assay relative to control; format: functional; conditions: Enterovirus, 71, RD
[4] = Cytotoxicity against human RD cells incubated for 48 hrs by MTT assay; format: toxicity, cell-based
Coxsackievirus B3 [5] = assay: Antiviral activity against CVB3 infected in HEp-2 cells assessed as inhibition of virus-induced cell death at 100 uM incubated for 48 hrs by MTT assay relative to control; format: functional; conditions: Enterovirus B, HEp-2, 48 h
Coxsackievirus B3 [6] = assay: Antiviral activity against CVB3 infected in HEp-2 cells assessed as inhibition of virus-induced cell death at 50 uM incubated for 48 hrs by MTT assay relative to control; format: functional; conditions: Enterovirus B
Coxsackievirus B3 [7] = assay: Antiviral activity against CVB3 infected in HEp-2 cells assessed as protection from virus-induced cytopathogenicity incubated for 48 hrs by MTT assay; format: functional, organism-based; conditions: Enterovirus B, HEp-2, 48 h
[8] = Selectivity index, ratio of CC50 for cytotoxicity against HEp-2 cells to EC50 for antiviral activity against CVB3 infected in HEp-2 cells; format: toxicity, cell-based; conditions: human, read-out: Ratio CC50/EC50
Enterovirus [9] = assay: Virucidal activity against EV71 infected in human RD cells at 100 uM pretreated compound with virus followed by inoculation of mixture into host cells measured after 2 days by Reed-Muench method; format: functional, organism-based; conditions: 71, time 2.0 day
Enterovirus [10] = assay: Antiviral activity against EV71 infected in human RD cells assessed as inhibition of virus-induced cell death at 100 uM incubated for 48 hrs by MTT assay relative to control; format: functional, 71; conditions: Enterovirus, 71, RD
Enterovirus [11] = assay: Antiviral activity against EV71 infected in human RD cells assessed as viral infection in cell at 100 uM incubated for 46.5 hrs by fluorescence microscopy (reference value: 80.67 %); format: functional, 71
Enterovirus [12] = assay: Antiviral activity against EV71 infected in human RD cells assessed as viral infection in cell at 50 uM incubated for 46.5 hrs by fluorescence microscopy (reference value: 80.67 %); format: functional, 71
Coxsackievirus B3 [13] = assay: Antiviral activity against CVB3 infected in HEp-2 cells assessed as inhibition of virus-induced cell death at 25 uM incubated for 48 hrs by MTT assay relative to control; format: functional; conditions: Enterovirus B
Enterovirus [14] = assay: Antiviral activity against EV71 infected in human RD cells assessed as increase in cell viability at 3.125 to 100 uM preincubated with compound followed by viral infection measured after 48 hrs by MTT assay; format: functional, organism-based; conditions: 71, dose 3.125-100 µM
Enterovirus [15] = assay: Antiviral activity against EV71 infected in human RD cells assessed as log reduction in viral replication at 100 uM incubated for 4 to 32 hrs by […] method; format: functional, 71; conditions: time 4-32 hrs
Enterovirus [16] = assay: Antiviral activity against EV71 infected in human RD cells assessed as increase in cell viability at 3.125 to 100 uM incubated with compound and virus measured after 48 hrs by MTT assay; format: functional, organism-based; conditions: 71, dose 3.125-100 µM
Enterovirus [17] = assay: Antiviral activity against EV71 infected in human RD cells assessed as reduction in viral protein translation at 100 uM incubated for 32 hrs by immunofluorescence analysis; format: functional, organism-based; conditions: 71
Enterovirus [18] = assay: Inhibition of EV71 3Dpol assessed as decrease in RNA chain extension by polyacrylamide gel electrophoresis; conditions: 71
Enterovirus [19] = assay: Antiviral activity against EV71 infected in human RD cells assessed as inhibition of virus-induced cell death at 25 uM incubated for 48 hrs by MTT assay relative to control; format: functional; conditions: Enterovirus, 71, RD
Enterovirus [20] = assay: Antiviral activity against EV71 infected in human RD cells assessed as inhibition of virus-induced cell death at 25 to 100 uM incubated for 48 hrs by MTT assay; format: functional, organism-based; conditions: 71, dose 25-100 µM
RD = assay: Inhibition of morphological changes in human RD cells infected with EV71 assessed as reduction in cytopathic effect at 50 to 100 uM measured after 48 hrs by Reed-Muench method; format: functional, cell-based; conditions: Enterovirus, 71, dose 50-100 µM
Enterovirus [21] = assay: Antiviral activity against EV71 infected in human RD cells assessed as protection from virus-induced cytopathogenicity by measuring reduction in progeny virus titer incubated for 48 hrs by MTT assay; format: functional, 71
[22] = Selectivity index, ratio of CC50 for cytotoxicity against human RD cells to EC50 for antiviral activity against EV71 infected in human RD cells; format: toxicity, cell-based; conditions: read-out: Ratio CC50/EC50
[23] = Cytotoxicity against human HEp-2 cells incubated for 48 hrs by MTT assay; format: toxicity, cell-based
HEp-2 = assay: Inhibition of morphological changes in HEp-2 cells infected with CVB3 assessed as reduction in cytopathic effect at 50 to 100 uM measured after 48 hrs by Reed-Muench method; format: functional, cell-based; conditions: Coxsackievirus B3, dose 50-100 µM
Coxsackievirus B3 [24] = assay: Antiviral activity against CVB3 infected in HEp-2 cells assessed as protection from virus-induced cytopathogenicity by measuring reduction in progeny virus titer incubated for 48 hrs by MTT assay; format: functional
Enterovirus [25] = assay: Antiviral activity against EV71 infected in human RD cells assessed as protection from virus-induced cytopathogenicity incubated for 48 hrs by MTT assay; format: functional, organism-based; conditions: Enterovirus, 71, RD
Enterovirus [26] = assay: Inhibition of EGFP-fused EV71 2Apro transfected in host cells co-expressing FLuc assessed as reduction in firefly luciferase activity incubated for 24 to 36 hrs by chemiluminescence analysis; format: cell-based; conditions: 71, time 24-36 hrs
Enterovirus [27] = assay: Antiviral activity against EV71 infected in human RD cells assessed as inhibition of viral RNA synthesis at 100 uM incubated for 32 hrs by qRT-PCR analysis; format: functional, organism-based; conditions: 71

## CN1C(=O)c2ccccc2N2C(=O)CCC12C(=O)NCCc1c[nH]c2ccccc12 (centres undefined)
Enterovirus [1]
  Activity: >80%
Coxsackievirus B3 [2]
  antiviral activity call (active/inactive): Active
Enterovirus [3]
  inhibition at 50 µM: 56.7%
[4]
  CC50 at 48 h: 265 µM
Coxsackievirus B3 [5]
  inhibition at 100 µM: 54.4%
Coxsackievirus B3 [6]
  inhibition at 50 µM: 40.8%
Coxsackievirus B3 [7]
  EC50: 82 µM
[8]
  selectivity ratio: 2.6
Enterovirus [9]
  Activity: inactive
Enterovirus [10]
  inhibition at 100 µM: 62.3%
Enterovirus [11]
  Activity: 5.34%
Enterovirus [12]
  Activity: 22.66%
Coxsackievirus B3 [13]
  inhibition at 25 µM: 24.2%
Enterovirus [14]
  Activity: inactive
Enterovirus [15]
  log(activity): 3.25
Enterovirus [16]
  Activity: inactive
Enterovirus [17]
  Activity: Active
Enterovirus [18]
  inhibition: inactive
Enterovirus [19]
  inhibition at 25 µM: 33%
Enterovirus [20]
  inhibition: Active
RD
  inhibition: Active; Compound Successfully Protected Host Cells From Pathological Changes Or Apoptosis
Enterovirus [21]
  log(activity): ~2.73
[22]
  selectivity ratio: 17.9
[23]
  CC50 at 48 h: 217 µM
HEp-2
  inhibition: Active; Compound Successfully Protected Host Cells From Pathological Changes Or Apoptosis
Coxsackievirus B3 [24]
  log(activity): ~4.03
Enterovirus [25]
  EC50: 14.8 µM
Enterovirus [26]
  inhibition: Active
Enterovirus [27]
  inhibition: Active
